Assay results as given in publication PMC7774954, “Interactomic affinity profiling by holdup assay: Acetylation and distal residues impact the PDZome-binding specificity of PTEN phosphatase” (PLoS ONE, 2020).
*1 amine or outer side, *2 acyl side, *3 side chain or, on linkers, in order; H or OH if unused. Where a SMILES comes first, the peptide text is derived from it. The star is where a group is joined. X1 = O=C(CCCC[C@@H]1SC[C@@H]2NC(=O)N[C@@H]21)NCCCOCCOCCOCCCN*; Suc = O=C(CCC(=O)[*:2])[*:1]

Columns and labels:
[1] = target: T1, SCRIB-3 (Homo sapiens, UniProt Q14160); test: Competitive FP, SCRIB-3; type: binding; settings: SCRIB-3 + 50 nM f16E6
T1 construct: Representative holdup data recorded for three PDZ domains (MAST2-1, HTRA1-1, SCRIB-3); made in house; host or cells: E. coli
T1 sequence (Q14160 1004-1093 limits assumed): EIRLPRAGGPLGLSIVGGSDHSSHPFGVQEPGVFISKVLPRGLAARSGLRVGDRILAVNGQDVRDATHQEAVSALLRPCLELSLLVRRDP
Experimental: Protein concentrations were determined by far-UV absorption spectroscopy. A detailed protocol has been published previously.

[2] = test system: LMO7-1; test: Holdup assay, LMO7-1; type: binding, human
[3] = test system: AHNAK1-1; test: Holdup assay, AHNAK1-1; type: binding, human
[4] = test system: GIPC3-1; test: Holdup assay, GIPC3-1; type: binding, human
[5] = target: LNX1-4 (Homo sapiens, UniProt Q8TBB1); test: Holdup assay, LNX1-4; type: binding
[6] = test system: CNKSR2-1; test: Holdup assay, CNKSR2-1; type: binding, human
[7] = test system: APBA2-1; test: Holdup assay, APBA2-1; type: binding, human
[8] = test system: LNX1-1; test: Holdup assay, LNX1-1; type: binding, human
[9] = test system: MAGI1-4; test: Holdup assay, MAGI1-4; type: binding, human
[10] = target: GRID2IP-2 (Homo sapiens, UniProt A4D2P6); test: Holdup assay, GRID2IP-2; type: binding
[11] = target: APBA1-2 (Homo sapiens, UniProt Q02410); test: Holdup assay, APBA1-2; type: binding
[12] = test system: APBA1-1; test: Holdup assay, APBA1-1; type: binding, human
[13] = test system: DLG2-3; test: Holdup assay, DLG2-3; type: binding, human
[14] = test system: GRIP2-2; test: Holdup assay, GRIP2-2; type: binding, human
[15] = target: T2, PTPN13 PDZ 4 (Homo sapiens, UniProt Q12923); test: Holdup assay, PTPN13-4; type: binding; settings: for BI: PDZ domain PTPN13-4
T2 construct: made in house; host or cells: E. coli
T2 sequence (Q12923 1788-1868 limits assumed): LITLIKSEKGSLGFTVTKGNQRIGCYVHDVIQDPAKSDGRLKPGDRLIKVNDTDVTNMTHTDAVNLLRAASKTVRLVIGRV
Experimental: The holdup assay was performed on a Tecan freedom Evo200 robot with 384-well plates in singlicate for the three 11-mer PTEN variants and the 13-mer PTEN peptide as described in [31, 32]. Briefly, prior to interaction assay, 2.5 μL of streptavidin resin was saturated in each well with 20 μL of biotinylated PBM peptides (42 μM) and then washed twice with an excess of free biotin, while the reference resin was incubated only with biotin. Right before the holdup experiment, the PDZ library was spiked with an internal standard of lysozyme. Then, the biotin- or PBM-saturated resin was incubated, each in a distinct well of a 384-well plate, with complete cell lysates diluted so that the concentration of the tag-PDZ present in the crude extract is adjusted at 4 μM. After a sufficient time to reach complex equilibrium (15 min.), a fast and mild filtration step is performed and the tag-PDZ concentrations were measured by capillary electrophoresis instrument (LabChip GXII, PerkinElmer, Massachusets, USA). Standard markers were used to convert migration time into molecular weight on the LabChip software and inappropriate molecular weight markers were corrected or excluded.
For filtered data, the BI was extracted with the following equation (Eq 1) that estimates the depleted fraction after superimposition of the sample and reference electropherograms: BI=Iref−Ilig/Iref (1) where Iref and Ilig are the intensities of the tag-PDZ peaks measured, for each PDZ domain/PBM peptide interaction pair, in the biotin reference and the PBM electropherograms, respectively.
BIs were transformed into dissociation constants (KD) using the following formula: KD=([PDZtot]−BI·[PDZtot])·([PBMtot]−BI·[PDZtot])/BI·[PDZtot] (2) where [PDZtot] and [PBMtot] correspond to the total concentrations of the PDZ domain (usually around 4 μM) and the PBM peptide used during the assay. Since the PBMtot concentration in the resin during the holdup assay parameter may differ from one peptide to another and remains unknown, it is impossible to directly convert BI values into KD constants. We systematically determined the KD constants for a subset of PDZ/PBM pairs by competitive FP. […] For each PBM, the average peptide concentration was calculated after outlier rejection based on the absolute distances from the median as compared to three times the standard deviation (3σ rule), with never more than 2 values rejected.

[16] = target: T3, CNKSR1-1 (Homo sapiens, UniProt Q969H4); test: Holdup assay, CNKSR1-1; type: binding
T3 sequence (Q969H4 1-720): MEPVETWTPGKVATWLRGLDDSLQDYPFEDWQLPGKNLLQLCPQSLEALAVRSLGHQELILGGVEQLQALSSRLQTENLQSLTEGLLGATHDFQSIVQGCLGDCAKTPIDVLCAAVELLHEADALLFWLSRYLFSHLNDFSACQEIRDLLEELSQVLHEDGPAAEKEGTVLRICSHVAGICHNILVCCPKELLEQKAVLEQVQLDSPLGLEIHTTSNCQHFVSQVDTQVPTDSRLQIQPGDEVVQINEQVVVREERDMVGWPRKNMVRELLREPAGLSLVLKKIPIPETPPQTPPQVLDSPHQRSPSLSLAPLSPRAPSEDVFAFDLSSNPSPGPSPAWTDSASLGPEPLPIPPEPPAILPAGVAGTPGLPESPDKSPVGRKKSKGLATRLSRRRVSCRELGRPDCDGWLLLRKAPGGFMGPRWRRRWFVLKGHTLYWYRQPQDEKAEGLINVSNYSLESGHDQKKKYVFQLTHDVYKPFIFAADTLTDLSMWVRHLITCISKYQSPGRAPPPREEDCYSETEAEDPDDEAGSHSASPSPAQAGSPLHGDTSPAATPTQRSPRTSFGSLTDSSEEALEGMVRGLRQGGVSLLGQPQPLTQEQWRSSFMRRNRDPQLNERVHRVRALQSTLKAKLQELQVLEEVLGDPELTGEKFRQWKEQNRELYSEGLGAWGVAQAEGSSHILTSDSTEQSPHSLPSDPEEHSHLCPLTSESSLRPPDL

LNX1-4, sequence (Q8TBB1 638-723): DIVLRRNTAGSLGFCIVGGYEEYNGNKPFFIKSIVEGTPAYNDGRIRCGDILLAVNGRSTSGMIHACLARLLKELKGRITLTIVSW
GRID2IP-2, sequence (A4D2P6 whole entry): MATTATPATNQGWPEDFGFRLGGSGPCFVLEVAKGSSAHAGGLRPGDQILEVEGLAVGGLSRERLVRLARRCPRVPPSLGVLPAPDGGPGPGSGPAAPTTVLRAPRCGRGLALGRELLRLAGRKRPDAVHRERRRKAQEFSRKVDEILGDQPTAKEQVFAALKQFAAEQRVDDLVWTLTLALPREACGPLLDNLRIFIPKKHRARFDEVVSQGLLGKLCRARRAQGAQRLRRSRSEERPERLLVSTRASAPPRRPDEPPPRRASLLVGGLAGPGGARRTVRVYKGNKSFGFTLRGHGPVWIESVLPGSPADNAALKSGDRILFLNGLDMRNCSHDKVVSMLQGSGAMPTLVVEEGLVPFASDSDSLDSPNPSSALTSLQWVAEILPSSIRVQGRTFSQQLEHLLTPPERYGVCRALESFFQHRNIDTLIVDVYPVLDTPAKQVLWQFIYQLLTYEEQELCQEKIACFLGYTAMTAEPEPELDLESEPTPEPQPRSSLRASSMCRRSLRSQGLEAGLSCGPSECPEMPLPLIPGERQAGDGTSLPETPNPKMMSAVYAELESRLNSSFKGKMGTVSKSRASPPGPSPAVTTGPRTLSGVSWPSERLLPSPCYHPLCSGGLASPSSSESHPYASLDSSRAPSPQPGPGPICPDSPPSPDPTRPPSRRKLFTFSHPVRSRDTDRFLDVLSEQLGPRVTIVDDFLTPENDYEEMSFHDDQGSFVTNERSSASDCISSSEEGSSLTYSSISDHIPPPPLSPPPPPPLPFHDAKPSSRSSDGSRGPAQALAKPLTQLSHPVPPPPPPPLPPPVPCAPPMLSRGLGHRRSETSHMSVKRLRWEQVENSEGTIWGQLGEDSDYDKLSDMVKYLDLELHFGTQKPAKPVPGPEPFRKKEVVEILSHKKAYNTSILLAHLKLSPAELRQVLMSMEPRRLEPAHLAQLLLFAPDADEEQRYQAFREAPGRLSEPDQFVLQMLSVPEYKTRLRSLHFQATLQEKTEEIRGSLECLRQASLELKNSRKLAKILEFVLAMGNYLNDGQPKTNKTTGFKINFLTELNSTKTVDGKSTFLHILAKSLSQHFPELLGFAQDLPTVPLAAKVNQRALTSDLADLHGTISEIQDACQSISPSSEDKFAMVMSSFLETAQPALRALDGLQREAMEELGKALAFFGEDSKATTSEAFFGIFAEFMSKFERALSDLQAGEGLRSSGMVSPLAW
APBA1-2, sequence (Q02410 747-822): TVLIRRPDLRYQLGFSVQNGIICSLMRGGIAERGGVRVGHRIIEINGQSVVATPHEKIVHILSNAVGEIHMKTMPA

## CC[C@H](C)[C@H](NC(=O)[C@H](CCC(N)=O)NC(=O)[C@@H](NC(=O)[C@H](Cc1c[nH]cn1)NC(=O)[C@H](CCC(N)=O)NC(=O)[C@H](CC(=O)O)NC(=O)[C@H](CCC(=O)O)NC(=O)[C@H](CC(=O)O)NC(=O)CCC(=O)NCCCOCCOCCOCCCNC(=O)CCCC[C@@H]1SC[C@@H]2NC(=O)N[C@@H]21)[C@@H](C)O)C(=O)N[C@H](C(=O)N[C@@H](CCCCN)C(=O)N[C@H](C(=O)O)C(C)C)[C@@H](C)O [PTEN_11]
[1]
  binding by holdup and competitive FP (in words): non-binding
[2]
  BI: -0.045
  LogKD: 3.519

## CC[C@H](C)[C@H](NC(=O)[C@H](CCC(N)=O)NC(=O)[C@@H](NC(=O)[C@H](Cc1c[nH]cn1)NC(=O)[C@H](CCC(N)=O)NC(=O)[C@H](CC(=O)O)NC(=O)[C@H](CCC(=O)O)NC(=O)[C@H](CC(=O)O)NC(=O)[C@H](Cc1ccccc1)NC(=O)[C@@H]1CCCN1C(=O)CCC(=O)NCCCOCCOCCOCCCNC(=O)CCCC[C@@H]1SC[C@@H]2NC(=O)N[C@@H]21)[C@@H](C)O)C(=O)N[C@H](C(=O)N[C@@H](CCCCN)C(=O)N[C@H](C(=O)O)C(C)C)[C@@H](C)O [PTEN_13] ({X1-Suc}-PFDEDQHTQITKV-OH)
[3]
  BI: -0.053
[4]
  BI: 0.032
[5]
  BI: 0.378
  Kd: 25.5 µM
[6]
  BI: -0.021
[7]
  BI: 0.029
[8]
  BI: 0.021
[9]
  BI: 0.094
[10]
  BI: -0.012
  LogKD: 3.826
[11]
  BI: 0.184
[12]
  BI: -0.05
[13]
  BI: 0.083
[14]
  BI: -0.021
[15]
  Kd: 35.8 µM
  BI: 0.306
[16]
  BI: -0.076
  LogKD: 3.826

## CC[C@H](C)[C@H](NC(=O)[C@H](CCC(N)=O)NC(=O)[C@@H](NC(=O)[C@H](Cc1c[nH]cn1)NC(=O)[C@H](CCC(N)=O)NC(=O)[C@H](CC(=O)O)NC(=O)[C@H](CCC(=O)O)NC(=O)[C@H](CC(=O)O)NC(=O)CCC(=O)NCCCOCCOCCOCCCNC(=O)CCCC[C@@H]1SC[C@@H]2NC(=O)N[C@@H]21)[C@@H](C)O)C(=O)N[C@H](C(=O)N[C@@H](CCCCNC(C)=O)C(=O)N[C@H](C(=O)O)C(C)C)[C@@H](C)O [PTEN_Ac]
[7]
  BI: -0.029
  LogKD: 3.605
[12]
  BI: -0.002
  LogKD: 3.605
[15]
  Kd: 10.4 µM
  BI: 0.707
[15]; PTPN13-4
  binding of PTPN13-4 (in words): PTPN13-4 binds to PTEN_Ac
[16]
  BI: 0.116
